Experiment [1] deals with 26S proteasome regulatory subunit 6B (Homo sapiens, UniProt P43686).
For a further experiment, the target named is T1, Ephrin type-B receptor 4 (Homo sapiens, UniProt P54760).
T1 sequence (P54760 whole entry): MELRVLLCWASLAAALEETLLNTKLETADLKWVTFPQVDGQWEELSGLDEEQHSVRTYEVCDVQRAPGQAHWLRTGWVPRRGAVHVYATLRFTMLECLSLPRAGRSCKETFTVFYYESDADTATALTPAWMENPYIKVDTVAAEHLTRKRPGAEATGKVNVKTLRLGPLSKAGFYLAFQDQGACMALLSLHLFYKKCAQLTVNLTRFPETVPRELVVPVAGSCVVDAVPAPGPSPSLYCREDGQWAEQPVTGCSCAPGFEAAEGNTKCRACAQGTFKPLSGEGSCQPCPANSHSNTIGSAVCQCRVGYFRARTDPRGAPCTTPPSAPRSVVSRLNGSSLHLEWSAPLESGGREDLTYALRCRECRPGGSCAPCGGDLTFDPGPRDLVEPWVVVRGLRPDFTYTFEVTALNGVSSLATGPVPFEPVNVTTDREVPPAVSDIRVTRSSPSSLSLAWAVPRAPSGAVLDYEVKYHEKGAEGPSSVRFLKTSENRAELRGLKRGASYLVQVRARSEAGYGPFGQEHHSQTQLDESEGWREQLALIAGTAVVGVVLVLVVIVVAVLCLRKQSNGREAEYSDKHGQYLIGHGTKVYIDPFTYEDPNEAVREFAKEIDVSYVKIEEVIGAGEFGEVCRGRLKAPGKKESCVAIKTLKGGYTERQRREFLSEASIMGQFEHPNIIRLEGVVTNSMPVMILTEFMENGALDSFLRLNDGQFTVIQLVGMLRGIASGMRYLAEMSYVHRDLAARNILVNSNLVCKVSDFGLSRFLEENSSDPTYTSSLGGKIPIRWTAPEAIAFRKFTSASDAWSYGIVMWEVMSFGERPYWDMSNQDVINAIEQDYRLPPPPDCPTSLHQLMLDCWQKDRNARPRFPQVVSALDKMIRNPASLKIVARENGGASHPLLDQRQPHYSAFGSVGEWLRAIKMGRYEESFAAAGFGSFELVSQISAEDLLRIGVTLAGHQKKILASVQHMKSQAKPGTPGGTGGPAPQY

The target of experiment [2] is T2, Structural maintenance of chromosomes protein 1A (Homo sapiens, UniProt Q14683).
T2 sequence (Q14683 whole entry): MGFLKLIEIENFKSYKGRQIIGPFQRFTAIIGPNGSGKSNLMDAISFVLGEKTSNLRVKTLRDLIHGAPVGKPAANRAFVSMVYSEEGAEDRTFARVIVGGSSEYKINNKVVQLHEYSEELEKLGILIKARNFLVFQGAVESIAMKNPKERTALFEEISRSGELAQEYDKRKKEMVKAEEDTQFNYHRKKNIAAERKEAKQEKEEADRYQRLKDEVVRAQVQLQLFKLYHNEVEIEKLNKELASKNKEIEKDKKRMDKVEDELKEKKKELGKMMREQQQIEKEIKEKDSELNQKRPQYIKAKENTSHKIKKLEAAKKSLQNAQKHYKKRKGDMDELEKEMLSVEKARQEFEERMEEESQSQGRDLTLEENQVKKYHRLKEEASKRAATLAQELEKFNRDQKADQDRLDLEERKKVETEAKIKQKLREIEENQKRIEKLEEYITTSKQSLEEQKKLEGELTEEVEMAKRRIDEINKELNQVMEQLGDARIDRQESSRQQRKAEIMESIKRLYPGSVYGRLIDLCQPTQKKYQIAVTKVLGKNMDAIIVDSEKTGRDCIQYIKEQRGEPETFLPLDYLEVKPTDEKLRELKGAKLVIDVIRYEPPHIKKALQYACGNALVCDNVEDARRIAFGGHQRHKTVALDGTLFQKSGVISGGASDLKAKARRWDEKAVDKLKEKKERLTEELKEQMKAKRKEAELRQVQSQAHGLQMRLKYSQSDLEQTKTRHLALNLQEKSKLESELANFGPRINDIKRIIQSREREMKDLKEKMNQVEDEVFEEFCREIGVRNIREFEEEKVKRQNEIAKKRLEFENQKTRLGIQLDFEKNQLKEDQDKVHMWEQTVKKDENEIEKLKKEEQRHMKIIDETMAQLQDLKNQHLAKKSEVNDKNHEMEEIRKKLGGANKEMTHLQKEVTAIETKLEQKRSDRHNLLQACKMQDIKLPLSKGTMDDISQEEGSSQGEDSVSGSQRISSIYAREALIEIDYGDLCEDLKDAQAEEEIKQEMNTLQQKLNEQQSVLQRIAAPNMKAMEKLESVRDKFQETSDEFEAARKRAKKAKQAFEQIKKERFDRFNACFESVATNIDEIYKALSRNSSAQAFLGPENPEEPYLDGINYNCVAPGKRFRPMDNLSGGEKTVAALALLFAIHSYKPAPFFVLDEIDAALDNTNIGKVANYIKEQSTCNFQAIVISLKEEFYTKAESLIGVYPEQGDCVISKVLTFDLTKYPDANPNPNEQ

Experiment [3] concerns the target Cyclin-dependent kinase 4 (Homo sapiens, UniProt P11802).
Experiment [4] concerns the target T3, Serine/threonine-protein kinase Chk1 (Homo sapiens, UniProt O14757).
T3 sequence (O14757 whole entry): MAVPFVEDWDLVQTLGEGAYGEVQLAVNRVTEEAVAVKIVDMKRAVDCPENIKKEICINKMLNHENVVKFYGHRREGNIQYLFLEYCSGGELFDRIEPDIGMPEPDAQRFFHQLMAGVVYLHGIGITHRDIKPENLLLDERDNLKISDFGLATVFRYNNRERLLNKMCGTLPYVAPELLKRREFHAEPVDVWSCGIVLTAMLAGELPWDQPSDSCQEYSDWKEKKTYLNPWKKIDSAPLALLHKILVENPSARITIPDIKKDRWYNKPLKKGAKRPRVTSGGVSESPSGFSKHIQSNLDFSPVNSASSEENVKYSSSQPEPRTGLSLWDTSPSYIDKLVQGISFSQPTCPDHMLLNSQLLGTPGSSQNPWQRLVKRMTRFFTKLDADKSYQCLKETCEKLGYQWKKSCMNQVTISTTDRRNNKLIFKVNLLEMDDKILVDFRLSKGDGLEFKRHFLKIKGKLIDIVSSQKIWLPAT

Experiment [5] concerns the target Macrophage-stimulating protein receptor (Homo sapiens, UniProt Q04912).
For a further experiment, the target named is Aurora kinase B (Homo sapiens, UniProt Q96GD4).
Experiment [6] addresses AP2-associated protein kinase 1 (Homo sapiens, UniProt Q2M2I8).
In experiment [7] the target is BMP-2-inducible protein kinase (Homo sapiens, UniProt Q9NSY1).

The source made the active and inactive calls. Cut-off read from the data, not from the text of the source, for most assays here: actives have a measured Kd and inactives only a lower limit.
Note: in the data inactive means no Kd found up to 30 µM.

Chain of Aurora kinase B (Q96GD4 whole entry): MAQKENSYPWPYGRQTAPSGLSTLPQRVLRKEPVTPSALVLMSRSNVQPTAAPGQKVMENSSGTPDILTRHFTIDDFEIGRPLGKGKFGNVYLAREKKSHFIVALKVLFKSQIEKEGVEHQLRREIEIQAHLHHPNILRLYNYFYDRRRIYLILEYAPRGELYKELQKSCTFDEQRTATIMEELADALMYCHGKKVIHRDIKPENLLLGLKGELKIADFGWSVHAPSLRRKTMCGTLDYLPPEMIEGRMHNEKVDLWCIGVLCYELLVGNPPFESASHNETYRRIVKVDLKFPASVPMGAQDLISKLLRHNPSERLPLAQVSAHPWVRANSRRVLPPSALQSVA
Chain of Cyclin-dependent kinase 4 (P11802 whole entry): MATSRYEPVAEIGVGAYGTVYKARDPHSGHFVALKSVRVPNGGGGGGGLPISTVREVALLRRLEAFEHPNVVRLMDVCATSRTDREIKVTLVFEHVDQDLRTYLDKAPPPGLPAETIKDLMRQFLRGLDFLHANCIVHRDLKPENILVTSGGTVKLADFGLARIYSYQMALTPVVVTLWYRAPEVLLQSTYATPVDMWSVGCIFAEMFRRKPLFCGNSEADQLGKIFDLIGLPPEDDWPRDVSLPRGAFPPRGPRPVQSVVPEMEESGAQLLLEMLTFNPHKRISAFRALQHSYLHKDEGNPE
Chain of Macrophage-stimulating protein receptor (Q04912 25-304 limits assumed): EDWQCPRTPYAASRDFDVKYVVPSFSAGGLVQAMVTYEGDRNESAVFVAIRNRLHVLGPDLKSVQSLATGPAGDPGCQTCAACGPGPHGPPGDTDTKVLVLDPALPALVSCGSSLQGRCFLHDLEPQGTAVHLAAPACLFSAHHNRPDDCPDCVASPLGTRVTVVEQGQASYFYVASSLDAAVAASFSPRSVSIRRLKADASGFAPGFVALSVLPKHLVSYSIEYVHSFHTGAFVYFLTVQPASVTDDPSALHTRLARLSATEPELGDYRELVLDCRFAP
Chain of Macrophage-stimulating protein receptor (Q04912 310-1400 limits assumed): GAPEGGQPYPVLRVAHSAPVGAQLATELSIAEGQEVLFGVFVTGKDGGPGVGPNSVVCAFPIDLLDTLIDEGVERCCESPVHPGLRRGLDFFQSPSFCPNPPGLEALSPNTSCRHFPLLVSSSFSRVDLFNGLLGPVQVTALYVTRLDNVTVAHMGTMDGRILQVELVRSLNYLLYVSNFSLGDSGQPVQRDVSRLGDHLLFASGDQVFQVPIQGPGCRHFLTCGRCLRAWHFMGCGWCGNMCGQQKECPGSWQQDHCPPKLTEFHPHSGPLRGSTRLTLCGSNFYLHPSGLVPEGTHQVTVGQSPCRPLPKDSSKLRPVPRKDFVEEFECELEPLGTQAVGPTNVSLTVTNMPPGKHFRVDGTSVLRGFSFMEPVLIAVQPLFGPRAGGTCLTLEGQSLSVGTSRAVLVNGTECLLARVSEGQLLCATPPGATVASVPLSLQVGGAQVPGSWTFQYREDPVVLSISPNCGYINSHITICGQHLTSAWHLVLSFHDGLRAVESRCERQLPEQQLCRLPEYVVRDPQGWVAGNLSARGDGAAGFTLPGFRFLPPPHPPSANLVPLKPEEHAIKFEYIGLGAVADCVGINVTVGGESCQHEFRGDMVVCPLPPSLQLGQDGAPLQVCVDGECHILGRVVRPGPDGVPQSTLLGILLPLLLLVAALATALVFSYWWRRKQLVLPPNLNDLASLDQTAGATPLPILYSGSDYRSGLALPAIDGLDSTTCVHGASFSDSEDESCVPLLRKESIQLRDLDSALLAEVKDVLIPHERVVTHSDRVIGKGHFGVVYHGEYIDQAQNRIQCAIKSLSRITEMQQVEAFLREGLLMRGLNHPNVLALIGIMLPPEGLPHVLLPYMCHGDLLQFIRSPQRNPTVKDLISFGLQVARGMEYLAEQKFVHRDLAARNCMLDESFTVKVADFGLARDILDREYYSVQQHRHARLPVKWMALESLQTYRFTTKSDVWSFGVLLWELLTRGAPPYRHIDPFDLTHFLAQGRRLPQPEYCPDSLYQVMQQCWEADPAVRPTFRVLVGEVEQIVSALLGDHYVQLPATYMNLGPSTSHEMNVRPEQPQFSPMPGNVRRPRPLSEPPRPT
Chain of AP2-associated protein kinase 1 (Q2M2I8 whole entry): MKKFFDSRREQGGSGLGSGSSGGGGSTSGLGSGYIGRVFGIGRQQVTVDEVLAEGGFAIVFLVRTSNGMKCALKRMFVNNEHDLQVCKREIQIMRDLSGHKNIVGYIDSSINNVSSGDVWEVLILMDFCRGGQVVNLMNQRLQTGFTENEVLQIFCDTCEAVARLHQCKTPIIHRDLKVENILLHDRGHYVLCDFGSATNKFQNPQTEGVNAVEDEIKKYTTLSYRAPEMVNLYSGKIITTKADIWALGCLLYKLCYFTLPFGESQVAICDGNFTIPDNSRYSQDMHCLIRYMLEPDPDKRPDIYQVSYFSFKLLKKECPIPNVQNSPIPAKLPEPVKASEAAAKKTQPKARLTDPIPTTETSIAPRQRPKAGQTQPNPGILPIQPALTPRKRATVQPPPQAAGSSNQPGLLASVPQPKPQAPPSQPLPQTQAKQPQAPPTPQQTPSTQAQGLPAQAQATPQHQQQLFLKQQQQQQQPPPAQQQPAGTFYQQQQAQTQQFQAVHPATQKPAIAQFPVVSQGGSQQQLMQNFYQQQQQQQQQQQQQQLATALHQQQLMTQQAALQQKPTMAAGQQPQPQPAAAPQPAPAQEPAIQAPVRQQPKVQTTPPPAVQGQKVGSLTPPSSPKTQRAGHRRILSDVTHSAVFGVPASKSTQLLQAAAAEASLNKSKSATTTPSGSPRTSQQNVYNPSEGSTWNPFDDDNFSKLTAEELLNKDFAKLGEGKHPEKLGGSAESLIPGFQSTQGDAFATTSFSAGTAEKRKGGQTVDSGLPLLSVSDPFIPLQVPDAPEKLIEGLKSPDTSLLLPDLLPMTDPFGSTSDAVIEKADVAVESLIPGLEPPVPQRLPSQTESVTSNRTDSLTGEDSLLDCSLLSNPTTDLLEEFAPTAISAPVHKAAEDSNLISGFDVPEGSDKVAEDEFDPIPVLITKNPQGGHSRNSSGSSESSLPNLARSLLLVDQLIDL
Chain of BMP-2-inducible protein kinase (Q9NSY1 whole entry): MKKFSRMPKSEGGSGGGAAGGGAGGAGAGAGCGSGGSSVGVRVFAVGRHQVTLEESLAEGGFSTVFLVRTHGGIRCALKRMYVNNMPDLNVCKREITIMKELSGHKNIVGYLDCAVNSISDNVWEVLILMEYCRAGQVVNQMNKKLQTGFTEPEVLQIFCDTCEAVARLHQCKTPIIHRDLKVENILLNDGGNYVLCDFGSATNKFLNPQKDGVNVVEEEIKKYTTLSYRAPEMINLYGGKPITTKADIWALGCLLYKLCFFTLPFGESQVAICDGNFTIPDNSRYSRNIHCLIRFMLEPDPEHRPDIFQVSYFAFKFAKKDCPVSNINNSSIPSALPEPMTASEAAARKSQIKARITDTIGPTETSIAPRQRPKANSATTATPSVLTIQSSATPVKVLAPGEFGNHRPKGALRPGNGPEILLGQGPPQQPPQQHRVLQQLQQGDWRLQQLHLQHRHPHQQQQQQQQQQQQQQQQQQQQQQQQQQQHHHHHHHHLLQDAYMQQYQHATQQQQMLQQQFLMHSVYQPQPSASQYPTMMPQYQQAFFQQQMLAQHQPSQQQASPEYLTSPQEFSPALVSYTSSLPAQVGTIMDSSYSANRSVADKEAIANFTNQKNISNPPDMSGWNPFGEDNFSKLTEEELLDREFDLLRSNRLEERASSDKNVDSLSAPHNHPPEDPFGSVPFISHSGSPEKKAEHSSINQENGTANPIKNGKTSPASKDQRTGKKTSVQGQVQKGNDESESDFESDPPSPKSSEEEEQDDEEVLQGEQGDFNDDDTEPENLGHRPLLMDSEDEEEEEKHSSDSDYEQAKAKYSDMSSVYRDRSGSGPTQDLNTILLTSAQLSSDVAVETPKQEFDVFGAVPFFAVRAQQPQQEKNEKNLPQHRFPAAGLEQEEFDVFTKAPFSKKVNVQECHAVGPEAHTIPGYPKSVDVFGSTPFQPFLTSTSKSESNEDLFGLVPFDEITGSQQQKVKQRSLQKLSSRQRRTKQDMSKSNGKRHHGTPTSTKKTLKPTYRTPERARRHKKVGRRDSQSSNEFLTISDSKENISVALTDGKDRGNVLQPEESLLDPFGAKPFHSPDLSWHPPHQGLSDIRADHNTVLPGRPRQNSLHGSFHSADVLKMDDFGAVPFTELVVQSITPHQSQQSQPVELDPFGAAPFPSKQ
Chain of 26S proteasome regulatory subunit 6B (P43686 whole entry): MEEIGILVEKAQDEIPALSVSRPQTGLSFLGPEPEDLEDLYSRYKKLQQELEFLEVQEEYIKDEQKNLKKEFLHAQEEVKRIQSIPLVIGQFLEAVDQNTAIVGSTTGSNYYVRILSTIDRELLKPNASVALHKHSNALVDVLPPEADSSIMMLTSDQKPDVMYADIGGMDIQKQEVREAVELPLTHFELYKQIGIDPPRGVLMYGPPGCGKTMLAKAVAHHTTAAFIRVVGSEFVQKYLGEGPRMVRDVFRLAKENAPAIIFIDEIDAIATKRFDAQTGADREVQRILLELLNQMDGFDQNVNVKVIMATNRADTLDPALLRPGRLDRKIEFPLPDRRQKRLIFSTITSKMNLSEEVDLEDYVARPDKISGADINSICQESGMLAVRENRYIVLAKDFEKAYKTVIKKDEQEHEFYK

On to `C[C@H]1CNCCCN1S(=O)(=O)c1cccc2cncc(F)c12`, for which the Kd (in experiment [1]; on Ephrin type-B receptor 4; in [2]; in [3]; in [4]; in [5]) was > 30 µM (inactive) each time. For the same compound, the Kd is 1.15 µM (active) at Aurora kinase B, > 30 µM (inactive) in experiment [6] and > 30 µM (inactive) in [7].

On to `CC(=O)c1cnc2ccc(-c3cc(Cl)c(O)c(Cl)c3)nc2c1N[C@H]1CC[C@H](CN(C)C)CC1`, for which the Kd in [1] is > 30 µM (inactive); at Ephrin type-B receptor 4, 0.143 µM (active); in experiment [2] it was > 30 µM (inactive); in experiment [3], > 30 µM (inactive); in experiment [4], > 30 µM (inactive); in experiment [5] it was 0.311 µM (active). In addition, the Kd at Aurora kinase B is 0.126 µM (active); in experiment [7], 0.245 µM (active).

Turning to `CCNC(=O)C#Cc1ccc2c(c1)NC(=O)/C2=C(\Nc1ccc(CN(C)C)cc1)c1ccccc1`, the Kd (in [1]; at Ephrin type-B receptor 4; in experiment [2]; in experiment [3]; in experiment [4]; in [5]) was > 30 µM (inactive) in each case. Further, the Kd is 0.059 µM (active) on Aurora kinase B, > 30 µM (inactive) in experiment [6] and > 30 µM (inactive) in experiment [7].

On to `C=CC(=O)N1CCC[C@H](n2c(=O)n(-c3ccc(Oc4ccccc4)cc3)c3c(N)ncnc32)C1`, for which the Kd (in [1]; on Ephrin type-B receptor 4; in experiment [2]; in [3]; in experiment [4]; in experiment [5]) was > 30 µM (inactive) in each case. In addition, the Kd (at Aurora kinase B; in experiment [6]; in [7]) was > 30 µM (inactive) each time.

Take `Cc1nc2cc(-c3nn(C(C)C)c4ncnc(N)c34)ccc2o1`: the Kd (in experiment [1]; on Ephrin type-B receptor 4; in [2]; in experiment [3]; in experiment [4]; in experiment [5]) was > 30 µM (inactive) each time. For the same compound, the Kd (at Aurora kinase B; in experiment [6]; in [7]) was > 30 µM (inactive) throughout.

As for `COCc1c(-c2ccc(NC(=O)Nc3cc(C(F)(F)F)ccc3F)c(F)c2)c2c(N)ncnn2c1CN1CCOCC1`, the Kd (in [1]; on Ephrin type-B receptor 4; in experiment [2]; in experiment [3]; in [4]; in [5]) was > 30 µM (inactive) in each case. In addition, the Kd (at Aurora kinase B; in [6]; in experiment [7]) was > 30 µM (inactive) throughout.

Regarding `O=C(Nc1c[nH]nc1-c1nc2cc(CN3CCOCC3)ccc2[nH]1)NC1CC1` [AT-9283], the Kd in experiment [1] was > 30 µM (inactive); in experiment [2], > 30 µM (inactive); in experiment [3] it was 1.29 µM (active); in [4], 0.084 µM (active); in experiment [5], > 30 µM (inactive); on Aurora kinase B, 0.017 µM (active). Moreover, the Kd in experiment [6] is 0.017 µM (active).

For `C#Cc1cccc(Nc2ncnc3cc(OC)c(OCCCCCCC(=O)NO)cc23)c1` [CUDC-101], the Kd (in experiment [1]; at Ephrin type-B receptor 4; in experiment [3]; in experiment [4]; in [5]; at Aurora kinase B) was > 30 µM (inactive) each time. Besides, the Kd in experiment [6] and in experiment [7] was > 30 µM (inactive) in each case.

With `CCn1cc(-c2ccnc3[nH]c(-c4cccc(CN(C)C)c4)cc23)c(-c2ccc(NC(=O)N(C)C)cc2)n1` [GSK-1070916], the Kd (in [1]; on Ephrin type-B receptor 4; in experiment [2]; in experiment [3]; in [4]; in experiment [5]) was > 30 µM (inactive) in each case. Also, the Kd on Aurora kinase B is 0.371 µM (active); in experiment [6], > 30 µM (inactive).

`CCOc1cc2ncc(C#N)c(Nc3ccc(F)c(Cl)c3)c2cc1NC(=O)/C=C/CN(C)C` [PELITINIB]: the Kd (in [1]; at Ephrin type-B receptor 4; in experiment [2]; in experiment [3]; in [4]; in experiment [5]) was > 30 µM (inactive) each time. In addition, the Kd (at Aurora kinase B; in [6]) was > 30 µM (inactive) each time.

On to `CNC(=O)c1cc(Oc2ccc(NC(=O)Nc3cc(C(C)(C)C)nn3-c3ccc4ncccc4c3)c(F)c2)ccn1` [REBASTINIB], for which the Kd in [1] was > 30 µM (inactive); on Ephrin type-B receptor 4 it was > 30 µM (inactive); in experiment [2], > 30 µM (inactive); in [4], > 30 µM (inactive); in [5], 0.732 µM (active); on Aurora kinase B, > 30 µM (inactive). For the same compound, the Kd in [6] and in experiment [7] was > 30 µM (inactive) each time.

Regarding `Cn1ncc(Cl)c1-c1cc(C(=O)N[C@H](CN)Cc2ccc(F)c(F)c2)oc1Cl` [UPROSERTIB], the Kd (in experiment [1]; at Ephrin type-B receptor 4; in experiment [3]; in experiment [4]; in [5]; on Aurora kinase B) was > 30 µM (inactive) throughout. The Kd in experiment [6] and in experiment [7] was > 30 µM (inactive) in each case.

These data come from ChEMBL document CHEMBL3991601, “The target landscape of clinical kinase drugs” (Science, 2017).
